Measurements taken from patent US12329733B2, “Acetyl-leucine or a pharmaceutically acceptable salt thereof for improved mobility and cognitive function” (INTRABIO LTD., priority 2016, dated 2025).
Entries after “also recorded” stand apart in the source; their conditions may differ.

Experiments:
[1] = tested on: subjects / patients; assay: adverse effects / tolerability; type: in vivo, human; conditions: for tolerability: 3 g/day one week then 5 g/day; for Adverse Effects: 5 g/day
[2] = tested on: subjects with no apparent dysfunction in cognitive ability or movement/balance; assay: Psychomotor Vigilance Task (Mind Metrics App, 10 trials per test); type: in vivo, human; conditions: for Statistically significant improvement in PVT performance on treatment?: 5 g/day; for % change in Reaction Time: on-treatment vs baseline
Source text: For example, the Psychomotor Vigilance Task (PVT) is a sustained-attention, reaction-timed task that measures the speed with which subjects respond to a visual stimulus. The subject monitors a screen and presses the screen as quickly as possible upon the appearance of visual stimuli. The visual stimuli will then disappear and reappear (at irregular time intervals) e.g., 10 times over the course of the test, with the subject touching the screen as quickly as possible upon each reappearance. Test performance is quantified from an average of the e.g. 10 reaction times. The subject's reaction speed and alertness was assessed using the Mind Metrics App (Psychomotor Vigilance Task, 10 trials per test). The Psychomotor Vigilance Task (PVT) is a sustained-attention, reaction-timed task that measures the speed with which subjects respond to a visual stimulus. The subject is required to monitor a screen and press the screen as quickly as possible upon the appearance of visual stimuli. The visual stimuli will then disappear and reappear (at irregular time intervals) 10 times over the course of the test, with the subject touching the screen as quickly as possible upon each reappearance. Test performance is quantified from an average of the 10 reaction times. […] The subject was assessed for 2 weeks prior to taking acetyl-leucine, which constitutes the baseline period.

[3] = tested on: subjects (cognitive function); assay: subject and family reports of cognitive function and alertness; type: in vivo, human; conditions: for Details on Subjective Improvement / Subjective Improvement on treatment?: 5 g/day
Source text: “Cognitive function” can mean any mental process that involves a symbolic operation, for example, perception, memory, creation of imagery, awareness, reasoning, thinking and capacity for judgment. Measures of cognitive functioning include assessment tools designed to measure, for example: (a) general intelligence, (b) nonverbal intelligence, (c) achievement, (d) attention/executive functioning, (e) memory and learning, (f) visual-motor and motor functioning and (g) language. Such assessment tools are well-known in the art and include, for example, Wechsler Adult Intelligence Scale and Woodcock-Johnson III Tests of Cognitive Abilities (both for assessing general intelligence), Raven Progressive Matrices (for assessing nonverbal intelligence), Wide Range Achievement Test and Woodcock-Johnson III Tests of Achievement (for assessing academic achievement), Conners' Continuous Performance Test II (for assessing attention/executive functioning), Wide Range Assessment of Memory and Learning (for assessing memory and learning), Bender Visual-Motor Gestalt Test, Halstead-Reitan Grip Strength Test, Halstead-Reitan Finger Tapping Test and Lafayette Grooved Pegboard Task (all for assessing visual-motor and motor functioning) and Peabody Picture Vocabulary Test (for assessing language).

[4] = tested on: subjects with no apparent dysfunction in cognitive ability or movement/balance; assay: balancing ability (eyes closed, non-dominant foot lifted, timed); type: in vivo, human
Method: Due to reported improvement in balance on treatment we measured balancing ability at the end of the treatment period and at the end of the washout period. This assessment required the subject to close their eyes and lift their non-dominant foot around 6 inches off the ground. The subject was then timed to see how long they could remain upright and without significant wobbles. This was repeated three times, and the values averaged. […] This assessment required the subject to close their eyes and lift their non-dominant foot around 6 inches off the ground. The subject was then timed to see how long they could remain upright and without significant wobbles. This was repeated three times, and the values averaged. We measured balancing ability at the end of the treatment period and at the end of the washout period. This assessment required the subject to close their eyes and lift their non-dominant foot around 6 inches off the ground. The subject was then timed to see how long they could remain upright and without significant wobbles. This was repeated three times, and the values averaged.

[5] = tested on: patients with Niemann-Pick type C; conditions: 12 patients, ref (7); cited from earlier work
[6] = tested on: vertigo; conditions: clinical results reported by various authors; cited from earlier work
[7] = tested on: patient with postural imbalance; assay: timed 8-meter-walking test; type: in vivo, human; conditions: Example 6: 5 g/day for 1 month; baseline 6.5 sec
Source text: (§1) Baseline (prior to commencement of treatment): Maximal distance to walk until the patient could not walk anymore because of fatigue was 1 km. The […] up-and-go test yielded 25.4 sec. SARA yielded 6.5/40. […] Tandem stance and gait was not possible to perform due to an increased fall risk. Mean timed 8-meter-walking test was 6.5 sec.

[8] = tested on: patient with postural imbalance; assay: maximal distance to walk; type: in vivo, human; conditions: Example 6: person; 5 g/day (2/1.5/1.5 g) for 1 month; baseline 1 km
Source text: (§2) The patient was examined clinically by means of the following clinical assessments: maximal distance to walk; timed Up and Go test; Scale for the Assessment and Rating of Ataxia (SARA).
as §1

[9] = tested on: cerebellar patients; conditions: cited from earlier work
[10] = tested on: patient with postural imbalance; assay: timed Up and Go test (stance up-and-go test); type: in vivo, human; conditions: Example 6: 5 g/day for 1 month; baseline 25.4 sec
Source text: as §2

[11] = Example 10: […], listed as acetyl-leucine
[12] = Example 1: person, 4.5 g/day, after 2-3 weeks of treatment

With `CC(=O)NC(CC(C)C)C(=O)O` (racemic) [acetyl-DL-leucine] as the compound, how does the side effects ([1]; Example 1: person, 4.5 g per day, over eighteen months) read?
The side effects was “no side effects”.

What about the tolerability ([1]; Example 3: person) of the same compound?
Its tolerability is “well tolerated”.

And the tolerability ([1]; Example 4: person)?
The tolerability was “very well tolerated”.

What about the side effects ([1]; Example 6: 2 g/1.5 g/1.5 g per day dosage regimen) of the same compound?
The side effects was “Sleepiness”.

What about the “side effects after dose reduction” value ([1]; Example 6: reduced to 1 g/1 g/1 g daily after 1 month, listed as Tanganil®) of the same compound?
The value was “cease in these side-effect symptoms; also recorded: have not returned”.

What about the “Adverse Effects” value ([1]; Example 7: 66 M, first week on medication) of the same compound?
The value was “mild dizziness/lightheadedness on one occasion”.

What about the “Adverse Effects” value ([1]; Example 8: 29 M, 4 weeks) of the same compound?
The value was “None reported”.

What about the “Adverse Effects” value ([1]; Example 9: 55 F, 4 weeks) of the same compound?
Its value is “None reported”.

And the “Adverse Effects” value ([1]; Example 10: 50 M, 2 weeks)?
The value was “None reported”.

And the “Adverse Effects” value ([1]; Example 11: 53 M, 4 weeks)?
Its value is “None reported”.

What about the “Adverse Effects” value ([1]; Example 12: 48 F, 4 weeks) of the same compound?
Its value is “None reported”.

What about the “Statistically significant improvement in PVT performance on treatment?” value (“Statistically significant improvement” below) ([2]; Example 7: 66 M, p<0.0001) of the same compound?
Its value is “significant improvement in Psychomotor Vigilance Task performance”.

What about the “Statistically significant improvement” value ([2]; Example 7: 66 M, p<0.0001, listed as acetyl-leucine) of the same compound?
The value was “Yes”.

And the “% change in Reaction Time” value ([2]; Example 7: 66 M)?
The value was −30.86%.

What about the “Statistically significant improvement” value ([2]; Example 8: 29 M, p<0.05) of the same compound?
Its value is “small but statistically significant improvement”.

What about the “Statistically significant improvement” value ([2]; Example 8: 29 M, p<0.05, listed as acetyl-leucine) of the same compound?
The value was “Yes”.

What about the “% change in Reaction Time” value ([2]; Example 8: 29 M) of the same compound?
Its value is −3.593%.

And the “Statistically significant improvement” value ([2]; Example 9: 55 F)?
The value was “not associated with significant changes”.

And the “Statistically significant improvement” value ([2]; Example 9: 55 F, listed as acetyl-leucine)?
Its value is “No”.

What about the “% change in Reaction Time” value ([2]; Example 9: 55 F) of the same compound?
Its value is 1.408%.

What about the “Statistically significant improvement” value ([2]; Example 10: […]) of the same compound?
The value was “small, non-statistically significant decline”.

And the “Statistically significant improvement” value [2, 11]?
The value was “No”.

And the “% change in Reaction Time” value ([2]; Example 10: […])?
Its value is 8.13%.

And the “Statistically significant improvement” value ([2]; Example 11: 53 M, p<0.01)?
The value was “statistically significant improvements”.

And the “Statistically significant improvement” value ([2]; Example 11: 53 M, p<0.01, listed as acetyl-leucine)?
Its value is “Yes”.

What about the “% change in Reaction Time” value ([2]; Example 11: 53 M) of the same compound?
Its value is −10.24%.

And the “Statistically significant improvement” value ([2]; Example 12: 48 F, p<0.001)?
Its value is “statistically significant improvements”.

And the “Statistically significant improvement” value ([2]; Example 12: 48 F, p<0.001, listed as acetyl-leucine)?
Its value is “Yes”.

And the “% change in Reaction Time” value ([2]; Example 12: 48 F)?
Its value is −7.474%.

And the “cognition after ceasing treatment” value ([3]; Example 1: after one-month course ceased)?
The value was “gradually declined to their pre-treatment status over one month”.

And the “alertness on waking (subject's description)” value [3, 12]?
Its value is “fully alert on waking”.

What about the “cognitive function, spatial awareness and general demeanor (family)” value [3, 12] of the same compound?
The value was “significant improvement in their cognitive function, spatial awareness and general demeanor”.

What about the “confusion evident prior to treatment” value ([3]; Example 1: remains on 4.5 g per day) of the same compound?
Its value is “entirely absent”.

What about the “communication and executive function (family)” value ([3]; Example 6: 5 g/day for 1 month) of the same compound?
Its value is “executive function improved”.

And the “energy, agility (subjective)” value ([3]; Example 6: 5 g/day for 1 month)?
Its value is “more energy, was more agile and interactive”.

What about the “Details on Subjective Improvement” value ([3]; Example 7: 66 M) of the same compound?
Its value is “improvement in general alertness and a shortening of the time required to go from ‘asleep’ to ‘fully awake’”.

What about the “Subjective Improvement on treatment?” value ([3]; Example 7: 66 M) of the same compound?
The value was “Yes”.

And the “Details on Subjective Improvement” value ([3]; Example 8: 29 M)?
The value was “improvement in general alertness. They also reported a decrease in anxiety”.

And the “Subjective Improvement on treatment?” value ([3]; Example 8: 29 M)?
The value was “Yes”.

What about the “Details on Subjective Improvement” value ([3]; Example 9: 55 F) of the same compound?
Its value is “shortening of the time required to go from ‘asleep’ to ‘fully awake’”.

What about the “Subjective Improvement on treatment?” value ([3]; Example 9: 55 F) of the same compound?
Its value is “Yes”.

And the “Subjective Improvement on treatment?” value ([3]; Example 10: […])?
The value was “no difference between on and off medication”.

And the “Subjective Improvement on treatment?” value [3, 11]?
The value was “No”.

And the “Details on Subjective Improvement” value ([3]; Example 11: 53 M)?
Its value is “improvement in general alertness and a shortening of the time required to go from ‘asleep’ to ‘fully awake’”.

And the “Subjective Improvement on treatment?” value ([3]; Example 11: 53 M)?
The value was “Yes”.

What about the “Details on Subjective Improvement” value ([3]; Example 12: 48 F) of the same compound?
Its value is “feeling less tired than usual and taking less time than was usual to go from asleep to fully awake”.

What about the “Subjective Improvement on treatment?” value ([3]; Example 12: 48 F) of the same compound?
Its value is “Yes”.

What about the “time able to remain balanced (average of 3 tests)” value (“time able to remain balanced” for short) ([4]; Example 7: 66 M, end of washout period) of the same compound?
Its value is 4.01 s.

What about the “time able to remain balanced” value ([4]; Example 7: 66 M, last day of treatment period) of the same compound?
The value was 7.27 s.

What about the “time able to remain balanced” value ([4]; Example 9: 55 F, end of washout period) of the same compound?
Its value is 8 s.

What about the “time able to remain balanced” value ([4]; Example 9: 55 F, last day of treatment period) of the same compound?
The value was 12 s.

What about the “time able to remain balanced” value ([4]; Example 11: 53 M, end of washout period) of the same compound?
Its value is 3.1 s.

What about the “time able to remain balanced” value ([4]; Example 11: 53 M, last day of treatment period) of the same compound?
Its value is 7.9 s.

And the ataxic symptoms [5]?
Its ataxic symptoms is “improvement in ataxic symptoms”.

What about the “cases with improvement in vertigo symptomology” value [6] of the same compound?
Its value is “more than 95%”.

What about the “Mean timed 8-meter-walking test” value [7] of the same compound?
Its value is 4.4 s.

What about the “Maximal distance to walk” value [8] of the same compound?
Its value is 1.5 km.

What about the cerebellar symptoms ([9]; case series, ref (5)) of the same compound?
Its cerebellar symptoms is “Improvement of cerebellar symptoms”.

And the “benefit in another case series” value ([9]; ref (6))?
Its value is “did not find benefit”.

And the stance up-and-go test [10]?
Its stance up-and-go test is 21.2 s.
